Measured values from ChEMBL document CHEMBL1201862, “PubChem BioAssay data set” (2004).
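96-well plates; 48 h exposure; 5 concentrations. Endpoints by linear interpolation between flanking doses. Not reached: highest tested concentration assigned. GI50 marks 50% less growth.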 Activity calls are given as the source filed them. No stated cut-off is given here; in the data, active = GI50 up to about 1.1 µM and inactive = higher.

Tests used:
Assay in all cases: NCI-60 cell line screen, 48 h
OVCAR-4 = tested on: OVCAR-4
NCI-H460 = tested on: NCI-H460
MDA-N = tested on: MDA-N
NCI/ADR-RES = tested on: NCI/ADR-RES
HCC 2998 = tested on: HCC 2998
SR = tested on: SR
SW-620 = tested on: SW-620
NCI-H522 = tested on: NCI-H522
RXF 393 = tested on: RXF 393
A549 = tested on: A549
UACC-257 = tested on: UACC-257
SK-OV-3 = tested on: SK-OV-3
SK-MEL-28 = tested on: SK-MEL-28
U-251 = tested on: U-251
TK-10 = tested on: TK-10
OVCAR-5 = tested on: OVCAR-5
CCRF-CEM = tested on: CCRF-CEM
SK-MEL-5 = tested on: SK-MEL-5
PC-3 = tested on: PC-3
Hs-578T = tested on: Hs-578T
SK-MEL-2 = tested on: SK-MEL-2
UO-31 = tested on: UO-31
BT-549 = tested on: BT-549
MDA-MB-435 = tested on: MDA-MB-435
SNB-19 = tested on: SNB-19
DU-145 = tested on: DU-145
NCI-H226 = tested on: NCI-H226
COLO 205 = tested on: COLO 205
HCT-15 = tested on: HCT-15
KM12 = tested on: KM12
IGROV-1 = tested on: IGROV-1
HL-60 = tested on: HL-60
SF-268 = tested on: SF-268
SN12C = tested on: SN12C
M14 = tested on: M14
Malme-3M = tested on: Malme-3M
K562 = tested on: K562
SF-539 = tested on: SF-539
A498 = tested on: A498
CAKI-1 = tested on: CAKI-1
NCI-H23 = tested on: NCI-H23
HT-29 = tested on: HT-29
HCT-116 = tested on: HCT-116
EKVX = tested on: EKVX
MCF7 = tested on: MCF7
MDA-MB-231 = tested on: MDA-MB-231
LOX IMVI = tested on: LOX IMVI
OVCAR-8 = tested on: OVCAR-8
786-0 = tested on: 786-0
HOP-62 = tested on: HOP-62
ACHN = tested on: ACHN
T47D = tested on: T47D
SF-295 = tested on: SF-295
UACC-62 = tested on: UACC-62
RPMI-8226 = tested on: RPMI-8226
OVCAR-3 = tested on: OVCAR-3
MOLT-4 = tested on: MOLT-4
HOP-92 = tested on: HOP-92

With `COc1ccccc1-c1cc(O)c2cccnc2n1` the GI50 (OVCAR-4) was 69.5 µM (inactive), the GI50 (NCI-H460) was 39.4 µM (inactive) and the GI50 (MDA-N) was 20 µM (inactive). The GI50 (NCI/ADR-RES) was 37 µM (inactive), the GI50 (HCC 2998) was > 100 µM (inactive) and the GI50 (SR) was > 100 µM (inactive). The GI50 (SW-620) was 30.1 µM (inactive), the GI50 (NCI-H522) was 46.9 µM (inactive) and the GI50 (RXF 393) was > 100 µM (inactive). For the same compound, the GI50 (A549) was 55 µM (inactive), the GI50 (UACC-257) was 37.8 µM (inactive) and the GI50 (SK-OV-3) was 58.1 µM (inactive). The GI50 (SK-MEL-28) was 82 µM (inactive), the GI50 (U-251) was 40.3 µM (inactive) and the GI50 (TK-10) was > 100 µM (inactive). The GI50 (OVCAR-5) was > 100 µM (inactive), the GI50 (CCRF-CEM) was 22.9 µM (inactive) and the GI50 (SK-MEL-5) was 31.4 µM (inactive). The GI50 (PC-3) was 40.2 µM (inactive), the GI50 (Hs-578T) was 61 µM (inactive) and the GI50 (SK-MEL-2) was 36.5 µM (inactive). For the same compound, the GI50 (UO-31) was 70.3 µM (inactive), the GI50 (BT-549) was 22.2 µM (inactive) and the GI50 (MDA-MB-435) was 23.4 µM (inactive). The GI50 (SNB-19) was 69.2 µM (inactive), the GI50 (DU-145) was > 100 µM (inactive) and the GI50 (NCI-H226) was 49.7 µM (inactive). For the same compound, the GI50 (COLO 205) was 24.8 µM (inactive), the GI50 (HCT-15) was 23.7 µM and the GI50 (KM12) was 35.6 µM (inactive). The GI50 (IGROV-1) was 22.5 µM (inactive), the GI50 (HL-60) was 39.3 µM (inactive) and the GI50 (SF-268) was 72.4 µM (inactive). For the same compound, the GI50 (SN12C) was 50.2 µM (inactive), the GI50 (M14) was 38.4 µM (inactive) and the GI50 (Malme-3M) was 37.8 µM (inactive). For the same compound, the GI50 (K562) was 30.3 µM (inactive), the GI50 (SF-539) was 56.9 µM (inactive) and the GI50 (A498) was 54.2 µM (inactive). The GI50 (CAKI-1) was 29.4 µM (inactive), the GI50 (NCI-H23) was 35.2 µM (inactive) and the GI50 (HT-29) was 23.4 µM (inactive). The GI50 (HCT-116) was 27.5 µM (inactive), the GI50 (EKVX) was 53.6 µM (inactive) and the GI50 (MCF7) was 6.59 µM (inactive). The GI50 (MDA-MB-231) was 52.6 µM (inactive), the GI50 (LOX IMVI) was 33 µM (inactive) and the GI50 (OVCAR-8) was 37.7 µM (inactive). The GI50 (786-0) was 76 µM (inactive), the GI50 (HOP-62) was > 100 µM (inactive) and the GI50 (ACHN) was 64.1 µM (inactive). The GI50 (T47D) was 69.7 µM (inactive), the GI50 (SF-295) was 67.9 µM (inactive) and the GI50 (UACC-62) was 47.5 µM (inactive). For the same compound, the GI50 (RPMI-8226) was 44.1 µM (inactive), the GI50 (OVCAR-3) was 36.5 µM (inactive) and the GI50 (MOLT-4) was 35.2 µM (inactive). For the same compound, the GI50 (HOP-92) was 7.89 µM (inactive).
